Results from patent US20110262395A1, “SENSORY RECEPTORS FOR CHRONIC FATIGUE AND PAIN AND USES THEREOF” (UNIVERSITY OF UTAH RESEARCH FOUNDATION, priority 2008, published 2011).
Values joined by “and” are separate entries in the source; they are usually repeats but may differ in a detail not shown here. Equal entries are not always repeated. “Also recorded” adds a separate entry of the source.

Columns and labels:
ASIC receptor = conditions: cited from earlier work
ASIC3 = target: T1, ASIC3 (Homo sapiens, UniProt Q9UHC3); conditions: pH 7.0; cited from earlier work
T1 sequence (Q9UHC3 1-531): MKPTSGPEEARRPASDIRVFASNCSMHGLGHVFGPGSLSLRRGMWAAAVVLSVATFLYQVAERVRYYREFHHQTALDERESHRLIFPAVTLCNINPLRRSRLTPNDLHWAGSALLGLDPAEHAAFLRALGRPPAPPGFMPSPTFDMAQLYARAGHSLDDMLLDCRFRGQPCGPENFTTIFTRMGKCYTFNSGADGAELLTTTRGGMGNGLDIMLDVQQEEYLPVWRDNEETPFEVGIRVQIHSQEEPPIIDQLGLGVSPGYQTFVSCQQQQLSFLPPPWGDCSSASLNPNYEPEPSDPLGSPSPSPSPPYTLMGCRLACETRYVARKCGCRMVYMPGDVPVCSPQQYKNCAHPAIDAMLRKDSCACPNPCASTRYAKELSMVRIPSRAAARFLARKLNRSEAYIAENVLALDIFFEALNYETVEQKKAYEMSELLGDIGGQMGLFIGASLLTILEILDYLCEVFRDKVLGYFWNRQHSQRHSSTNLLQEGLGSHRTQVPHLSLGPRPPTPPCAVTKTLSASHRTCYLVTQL

TRPV1 receptors = TRPV1 receptors (Mus musculus, UniProt Q704Y3); conditions: cited from earlier work
TRPV1 receptors, sequence (Q704Y3 whole entry): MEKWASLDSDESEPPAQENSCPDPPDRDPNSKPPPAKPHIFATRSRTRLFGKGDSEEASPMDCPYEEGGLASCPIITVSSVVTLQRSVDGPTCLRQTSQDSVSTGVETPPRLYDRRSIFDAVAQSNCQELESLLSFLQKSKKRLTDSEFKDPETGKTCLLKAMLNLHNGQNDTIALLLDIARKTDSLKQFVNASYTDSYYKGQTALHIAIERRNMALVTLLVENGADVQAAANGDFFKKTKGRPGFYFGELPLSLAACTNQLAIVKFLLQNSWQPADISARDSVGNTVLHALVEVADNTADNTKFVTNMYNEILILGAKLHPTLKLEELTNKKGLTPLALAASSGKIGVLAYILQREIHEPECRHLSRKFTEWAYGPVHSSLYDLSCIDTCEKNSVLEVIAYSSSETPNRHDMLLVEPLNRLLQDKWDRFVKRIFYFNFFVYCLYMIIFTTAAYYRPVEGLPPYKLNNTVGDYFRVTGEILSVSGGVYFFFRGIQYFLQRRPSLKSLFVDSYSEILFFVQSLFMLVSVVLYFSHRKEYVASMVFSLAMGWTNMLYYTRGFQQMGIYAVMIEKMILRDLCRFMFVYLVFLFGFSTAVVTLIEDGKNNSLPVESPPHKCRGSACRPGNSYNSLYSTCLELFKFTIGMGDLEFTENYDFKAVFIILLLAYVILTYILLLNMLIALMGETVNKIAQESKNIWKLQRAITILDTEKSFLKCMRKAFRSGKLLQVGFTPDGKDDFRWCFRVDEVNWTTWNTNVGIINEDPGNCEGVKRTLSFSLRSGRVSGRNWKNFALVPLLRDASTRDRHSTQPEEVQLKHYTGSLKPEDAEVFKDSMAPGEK

DRG neurons [1] = test: Calcium imaging of cultured DRG neurons: antagonist effects on responses to capsaicin, ATP or KCl (selectivity control); format: cell-based, mouse
Description: (§1) Harvesting/culturing cells/loading cells: Thirty-nine three week old (4 wells of DRG neurons plated from each mouse), C57Bl/6 mice were anesthetized with isoflurane, and euthanized by cervical dislocation. Dorsal root ganglia (DRG) from lumbar regions were removed into HBSS, treated with trypsin, washed with MEM (Invitrogen 51200-038) containing 10% FBS (Hyclone), 2.4% glucose, 1% glutamax (Invitrogen 35050-061) and 1% penicillin/streptomycin (Atlanta Biological B2110). DRG were triturated, pre-plated and incubated at 37° C. for one hour to reduce non-neuronal cells. Neurons were gently swirled and centrifuged (110×g, 5 min). Cells were removed, re-suspended and 30 μL plated onto the 4 center wells of 24-well plates coated with poly-L-lysine and laminin. A 0.5 mm thick silicone ring with a 4 mm diameter opening sealed to the surface of each well reduced the plating area in each well. Following 1 hour, wells were filled with 37° C. culture medium with 10 ng/mL GDNF (Glial Derived Neurotrophic Factor) (Preprotech 450-10). Sixteen to 23 hours after plating, cultures were loaded with Fura-2 AM (Molecular Probes F-1221) fluorescent dye for 40-60 minutes, then washed with pH 7.4 oxygenated observation medium containing no additional ATP (145 mM NaCl, 5 mM KCl, 2 mM CaCl2, 1 mM MgCl2, 1 mM Citrate, 10 mM glucose, 10 mM MES, 10 mM HEPES). The final well volume was 500 μL.
(§2) JYL-1422, LJO-328, A-317567, and a selected stereo isomer of A-317567 were each dissolved in 5% DMSO/95% water and a few μL of 1M HCl to a concentration of 10 mM, then quick frozen and stored at −20° C. Aliquots of antagonists were thawed and diluted to the appropriate concentrations just prior to use in the experiments. The strong buffers maintained the pH of these antagonists when mixed with metabolites.
(§3) Imaging procedure: All experiments were performed at room temperature (20-25° C.) to allow correspondence with most previous experiments using calcium imaging and patch clamp of DRG neurons. Cells were imaged using the Meta Imaging Series Metafluor program (Universal Imaging Corp). All cells identifiable as neurons based on their round shape, clear, single nucleus, were selected from a phase image of the field. At the end of each experiment, 200 nM capsaicin was applied, followed by a wash, and then applied 50 mM KCl. Capsaicin activation indicated the presence of TRPV1 receptors on neurons, and KCl ensured that recorded objects were active neurons, and established the maximal calcium response in each neuron. For some neurons the administration of capsaicin abolished the potential for responding to KCl, thus either a response to capsaicin or to KCl indicated viability of neurons, and only viable neurons were included in analyses.
For each field an average of 151+10 cells were tracked real-time. […]

TRPV1 = TRPV1 (Homo sapiens, UniProt Q8NER1); conditions: cited from earlier work
TRPV1, sequence (Q8NER1 whole entry, species assumed): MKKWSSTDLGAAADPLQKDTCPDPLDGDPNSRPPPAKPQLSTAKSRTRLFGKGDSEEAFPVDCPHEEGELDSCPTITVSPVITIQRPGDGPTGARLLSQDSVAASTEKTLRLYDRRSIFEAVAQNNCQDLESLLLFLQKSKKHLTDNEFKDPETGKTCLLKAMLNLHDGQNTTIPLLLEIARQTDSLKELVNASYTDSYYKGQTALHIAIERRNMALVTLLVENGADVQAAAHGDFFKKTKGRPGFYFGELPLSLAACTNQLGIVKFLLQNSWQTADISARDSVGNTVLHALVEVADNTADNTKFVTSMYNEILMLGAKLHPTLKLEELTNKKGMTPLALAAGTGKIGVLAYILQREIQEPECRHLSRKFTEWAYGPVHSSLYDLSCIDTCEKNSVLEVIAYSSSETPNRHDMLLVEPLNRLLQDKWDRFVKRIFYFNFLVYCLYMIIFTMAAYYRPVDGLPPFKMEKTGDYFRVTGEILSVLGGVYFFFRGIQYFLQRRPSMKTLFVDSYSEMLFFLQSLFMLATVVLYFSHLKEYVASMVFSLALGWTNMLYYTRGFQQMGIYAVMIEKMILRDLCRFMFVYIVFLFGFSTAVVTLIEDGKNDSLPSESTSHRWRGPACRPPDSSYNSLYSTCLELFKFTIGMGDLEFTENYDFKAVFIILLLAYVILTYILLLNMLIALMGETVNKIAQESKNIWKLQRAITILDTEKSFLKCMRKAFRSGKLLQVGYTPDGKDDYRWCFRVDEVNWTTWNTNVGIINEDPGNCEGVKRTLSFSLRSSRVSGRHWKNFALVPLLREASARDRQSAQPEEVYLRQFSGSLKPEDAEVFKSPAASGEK

DRG neurons [2] = test: Calcium imaging of cultured DRG neurons: percent of neurons responding to applied metabolites or capsaicin; format: cell-based, mouse; conditions: 200 nM
Description: as §1
Choice and concentrations of metabolites: Because the afferent receptors in muscle have been reported to be on the outside of blood vessels supplying muscle, values obtained for muscle interstitium from experiments using cat, rat, and human for muscle contraction evoked by mild to moderate to extreme exercise were used.
Protons (pH): Values between 7.6 and 6.2 were used spanning the range found in skeletal and cardiac muscle in mammals from above resting values to those found with injury and disease.
Lactate: 1-50 mM lactate was used, a range of values that spans from rest to ischemia in muscles of humans and rats and mice.
ATP: ATP concentrations in muscle interstitium increase from 300 nM at rest to 5 μM with ischemic muscle contraction (Hellsten et al., 1998; Li et al., 2003; Li et al., 2005). These levels were used in the experiments described below. […] To allow for physiological levels of desensitization of possible P2X receptors, freshly prepared ATP at 300 nM was used for at least 30 seconds before any further increases in ATP combined with other metabolites, to establish resting conditions in DRG neurons in these experiments. […] Also used were pH 6.0 and 4.0 without additional increases in metabolites to confirm that the imaging experiments could replicate recent reports using patch-clamp techniques (Leffler et al., 2006).
(§4) Combinations of metabolites applied to mimic naturally occurring conditions: When applied in an escalating series to mimic increases in metabolites that occur with muscle exercise and ischemic muscle exercise, the metabolite values shown in Table 1 were used. The values associated with pH 7.6 are at or below those normally found at rest in the mouse. The values at 7.4 approximate those found at rest. Generally, the low metabolite values associated with pH higher than 7.0 are likely to be non-noxious, while higher metabolite values at pH 7.0 and lower may be associated with pain. These values should bracket the physiological range of metabolites found in skeletal muscle with the last two values (those associated with 6.4 and 6.2) being higher than the physiological range (Bangsbo et al., 1993; Bangsbo et al., 2001; Li et al., 2003; Li et al., 2005; Reeh and Kress, 2001; Steinhagen et al., 1976).
Di-I labeling: In some experiments, neurons were identified as innervating muscle by prior muscle labeling with Di-I. Twelve 7-9 day old mice were anesthetized by cooling. […]

DRG neurons [3] = conditions: patch-clamp, previous reports; cited from earlier work
P2X3 receptors = target: T2, P2X3 receptors (Homo sapiens, UniProt P56373); conditions: cited from earlier work
T2 sequence (P56373 1-397): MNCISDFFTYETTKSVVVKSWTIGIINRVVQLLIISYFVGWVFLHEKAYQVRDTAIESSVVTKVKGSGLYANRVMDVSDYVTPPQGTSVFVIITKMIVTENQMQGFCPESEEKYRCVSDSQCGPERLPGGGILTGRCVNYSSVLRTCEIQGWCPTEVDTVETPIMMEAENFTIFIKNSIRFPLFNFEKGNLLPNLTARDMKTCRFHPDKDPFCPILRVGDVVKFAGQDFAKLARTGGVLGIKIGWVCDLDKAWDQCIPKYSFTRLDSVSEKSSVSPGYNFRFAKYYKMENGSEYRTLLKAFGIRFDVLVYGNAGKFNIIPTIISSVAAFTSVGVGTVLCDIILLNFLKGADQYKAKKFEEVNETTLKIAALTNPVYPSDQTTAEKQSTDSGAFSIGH

mouse P2X4 receptors = target: T3, mouse P2X4 receptors (Mus musculus, UniProt Q9JJX6); conditions: cited from earlier work
T3 sequence (Q9JJX6 1-388): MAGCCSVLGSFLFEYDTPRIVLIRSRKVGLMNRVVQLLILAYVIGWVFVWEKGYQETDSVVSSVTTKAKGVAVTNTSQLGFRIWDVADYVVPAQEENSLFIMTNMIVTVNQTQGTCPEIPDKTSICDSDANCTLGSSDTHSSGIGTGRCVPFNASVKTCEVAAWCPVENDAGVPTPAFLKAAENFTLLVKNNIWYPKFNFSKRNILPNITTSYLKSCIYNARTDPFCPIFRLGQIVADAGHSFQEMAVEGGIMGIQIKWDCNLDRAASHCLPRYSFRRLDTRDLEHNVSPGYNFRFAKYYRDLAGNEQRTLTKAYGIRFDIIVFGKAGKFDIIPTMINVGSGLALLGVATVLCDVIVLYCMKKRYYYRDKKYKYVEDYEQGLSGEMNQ

P2X5 receptors = P2X5 receptors (Homo sapiens, UniProt Q93086); conditions: cited from earlier work
P2X5 receptors, sequence (Q93086 whole entry): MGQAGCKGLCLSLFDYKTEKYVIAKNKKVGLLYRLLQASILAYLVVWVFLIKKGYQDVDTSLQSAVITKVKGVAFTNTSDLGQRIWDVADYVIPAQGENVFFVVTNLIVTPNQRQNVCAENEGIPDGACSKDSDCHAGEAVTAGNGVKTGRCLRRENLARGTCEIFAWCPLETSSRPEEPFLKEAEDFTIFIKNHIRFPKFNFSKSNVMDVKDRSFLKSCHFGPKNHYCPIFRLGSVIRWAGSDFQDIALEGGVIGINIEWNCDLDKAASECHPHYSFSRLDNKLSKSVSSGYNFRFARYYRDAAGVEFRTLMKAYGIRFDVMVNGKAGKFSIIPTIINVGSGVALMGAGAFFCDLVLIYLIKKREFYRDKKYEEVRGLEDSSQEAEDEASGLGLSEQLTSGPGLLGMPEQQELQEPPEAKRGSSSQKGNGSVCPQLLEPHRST

DRG neurons [4] = test: Calcium imaging of cultured DRG neurons: antagonist effects on responses to increasing metabolites (protons, lactate, ATP); format: cell-based, mouse
Description: as §1, §4, §2, §3
For each field an average of 151+10 cells were tracked real-time. […] FIGS. 1 and 2 show traces from these graphs. […]

In the case of N=C(N)NC(=O)c1nc(Cl)c(N)nc1N [Amiloride], the “effect on ASIC receptor responses to low pH” value (ASIC receptor) is given as “antagonizes all ASIC receptor responses to low pH” and the “effect on ASIC3 responses to moderate pH levels” value (ASIC3) is given as “enhanced”.

For Oc1cc2c(cc1O)CN(C(=S)NCCc1ccc(Cl)cc1)CCC2 [Capsazepine], the “inhibitory action on pH responses of TRPV1 receptors” value (TRPV1 receptors) is listed as “little inhibitory action”.

For Cc1ccc(CC(CNC(=S)NCc2ccc(NS(C)(=O)=O)c(F)c2)COC(=O)C(C)(C)C)cc1C (centres unmarked) [JYL-1433], the “responses to KCl application in presence of antagonist” value (DRG neurons [1]; antagonist 2 μM, 50 mM KCl) is listed as “remained normal” and the TRPV1 antagonism (TRPV1) is listed as “potent full antagonists of TRPV1”.

For COc1cc(CNC(=O)CCCC/C=C/C(C)C)ccc1O [capsaicin], the “percentage of DRG neurons responding with rapid calcium increase” value (shortened to “percentage … with rapid calcium increase”) (DRG neurons [2]; all DRG neurons) was 50.9±4.2%, the “percentage … with rapid calcium increase” value (DRG neurons [2]; all muscle labeled neurons) was 48.8 ± 5.8% and the “percentage … with rapid calcium increase” value (DRG neurons [2]; metabolite-responding DRG neurons) was 71.9 ± 4.2%. For the same compound, the “percentage … with rapid calcium increase” value (DRG neurons [2]; muscle labeled metabolite responders) was 63.4 ± 5.8% and the “capsaicin responses in DRG neurons, percent” value (DRG neurons [3]) was 36% and 20%.

For TNP-ATP, the “capsaicin and KCl responses in presence of antagonist” value (DRG neurons [1]; any dose) is given as “unaffected”, the IC50 (P2X3 receptors) is given as 0.31 nM and 0.3 nM and the IC50 (mouse P2X4 receptors) is given as 16000 nM. The IC50 (P2X5 receptors) was 500 nM, the “effect on responses to increasing metabolites” value (DRG neurons [4]; antagonist 10 nM) was “facilitated responses; also recorded: can increase responses of DRG neurons to increasing metabolites” and the “effect on responses to increasing metabolites” value (DRG neurons [4]; antagonist 200 μM) was “blocked nearly all responses to metabolites; also recorded: abolished most responses to increasing metabolites”. For the same compound, the “effect on metabolite responses associated with pH 6.8 and above” value (DRG neurons [4]; antagonist 1 and 10 μM) was “had little effect”, the “effect on responses to low metabolites” value (DRG neurons [4]; antagonist 1 and 10 μM (FIG. 2 legend: 1 μM), metabolites between pH 7.3-7.0) was “reduced low metabolite responses; also recorded: reduced responses of DRG neurons; also recorded: eliminated most responses to low metabolites” and the “effect on responses to increasing metabolites” value (DRG neurons [4]; antagonist 200-300 μM, doses effective at all P2X receptors) was “eliminated nearly all responses to increasing metabolites”. For the same compound, the “effect on responses to metabolites” value (DRG neurons [4]; antagonist at 10 μM (so in the source), p<0.05) was “increased responses to metabolites”.
